# Results: patent publication US20200261391A1, “METHODS OF REDUCING THE RISK OF A CARDIOVASCULAR EVENT IN A STATIN-TREATED SUBJECT BY INCREASING SERUM AND PLASMA EPA AND DPA LEVELS” (Amarin Pharmaceuticals Ireland Limited, priority 2019, published 2020)
# Experiment: REDUCE-IT change from baseline blood pressure (mixed effects model)
# Type: in vivo, human
# Conditions: ITT
# Experimental: Blood pressure was measured using a standardized process: • Patient sat for ≥5 minutes with feet flat on the floor and measurement arm supported so that the midpoint of the manometer cuff was at heart level; and • Used a mercury sphygmomanometer or automatic blood pressure device with an appropriately sized cuff with the bladder centered over the brachial artery.
# Blood pressure was recorded to the nearest 2 mmHg mark on the manometer or to the nearest whole number on an automatic device. A blood pressure reading was repeated 1 to 2 minutes later, and the second reading recorded to the nearest 2 mmHg mark.
# It is contemplated that a number of factors contribute to the significant reduction in the cardiovascular risk. Without intending to be bound by any particular theory, one of the contributing factors might relate to the dose and formulation of the icosapent ethyl administered to the patients, in marked contrast to previous studies of omega-3 fatty acid studies. An additional contributing factor could relate to the patients' blood pressure. […] These differences appear to be modest, but it is contemplated, that they might contribute to the benefits of icosapent ethyl. […]
smiles,measurement,value
"CC/C=C\C/C=C\C/C=C\C/C=C\C/C=C\CCCC(=O)OCC [icosapent ethyl, eicosapentaenoic acid ethyl ester]","diastolic blood pressure, average placebo-corrected reduction from baseline",0.5 mm Hg
same,"systolic blood pressure, average placebo-corrected reduction from baseline",1.3 mm Hg
